Counter-ions that a name gives are not always drawn.
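Also: recombinant CYP1A2 incubated for 1 h at 37 °C, with the reaction started by an NADPH-generating system.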

The first data set concerns the target T1, CYP1A2 (Homo sapiens, UniProt P05177).
T1 sequence (P05177 1-516): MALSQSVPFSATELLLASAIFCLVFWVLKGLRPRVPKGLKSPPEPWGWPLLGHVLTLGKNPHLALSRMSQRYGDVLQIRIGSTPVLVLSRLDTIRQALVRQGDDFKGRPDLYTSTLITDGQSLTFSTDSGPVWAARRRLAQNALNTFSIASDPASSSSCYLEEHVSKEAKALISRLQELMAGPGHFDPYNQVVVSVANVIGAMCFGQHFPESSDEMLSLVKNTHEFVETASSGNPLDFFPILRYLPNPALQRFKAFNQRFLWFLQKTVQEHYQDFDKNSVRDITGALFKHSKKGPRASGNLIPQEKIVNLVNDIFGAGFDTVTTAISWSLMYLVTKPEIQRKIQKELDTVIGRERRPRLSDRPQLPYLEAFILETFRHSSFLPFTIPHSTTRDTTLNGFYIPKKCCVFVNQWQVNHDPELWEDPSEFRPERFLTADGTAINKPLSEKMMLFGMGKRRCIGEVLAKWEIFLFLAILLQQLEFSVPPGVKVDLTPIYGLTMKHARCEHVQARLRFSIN
The experiment in a line: in vitro. The format is biochemical. The following applies: 1 μM active ingredient, Rh CYP1A2-mediated phenacetin O-deethylation, test dataset of 202 herb ingredients.
Protocol: A total of 18 candidate compounds selected by pharmacophore and docking were examined for their potential to inhibit rhCYP1A2 phenacetin O-deethylation activity at a test concentration of 1 μM.
The basic incubation medium contained 100 mM potassium phosphate buffer (PH 7.4), 50 pmol recombinant human CYP1A2, 25 μM phenacetin and 1 μM active ingredients. The final incubation volume was 200 μL. After 5 min pre-incubation at 37 °C, the reaction was initiated by the addition of NADPH-generating system (5 mM MgCl2, 10 mM glucose 6-phosphates, 1 mM NADPH, and 2.5 U per mL glucose 6-phosphate dehydrogenase). Incubations were performed in a 37 °C shaking water bath for 1 h. Reactions were stopped by adding 0.4 mL of ice-cold acetonitrile containing 0.2 mg/L tinidazole (IS). […] The column was maintained at 35 °C and the injection volume was 10 μL.
Turning to `C[C@H]1CC[C@@]2(O)C(C)(C)[C@@H]3CC[C@@]2(C)[C@H]1C3` [Patchouli alcohol], the “% of Control Indication Activity (Mean)” value is greater than 90%.
On the same count and under the same terms, the same measure for `C/C=C(/C)C(=O)O[C@H]1[C@@H](OC(C)=O)c2c(ccc3ccc(=O)oc23)OC1(C)C` [Praeruptorin A]: greater than 90%; for `Cc1c(O)c(C)c2oc(-c3ccc(O)cc3)cc(=O)c2c1O` [Syzalterin]: greater than 90%; for `COc1cc(-c2oc3cc(O)cc(O)c3c(=O)c2O[C@@H]2O[C@H](CO[C@@H]3O[C@@H](C)[C@H](O)[C@@H](O)[C@H]3O)[C@@H](O)[C@H](O)[C@H]2O[C@@H]2O[C@@H](C)[C@H](O)[C@@H](O)[C@H]2O)ccc1O` [Typhaneoside]: greater than 90%.
As to `COc1ccc(-c2oc3cc(OC)c(OC)c(O)c3c(=O)c2OC)cc1O` [Vitexicarpin], the “% of Control Indication Activity (Mean)” value is greater than 90%.
In the case of `C[C@@H]1O[C@@H](O[C@@H]2[C@@H](O)[C@H](O)[C@@H](CO)O[C@H]2c2c(O)cc(O)c3c(=O)cc(-c4ccc(O)cc4)oc23)[C@H](O)[C@H](O)[C@H]1O` [Vitexin rhamnoside], the “% of Control Indication Activity (Mean)” value is greater than 90%.

Still in this data set, the particulars now being: human, recombinant enzyme, pH 7.4.
As for `COc1cc(C(=O)O[C@H]2[C@@H]3C=CO[C@@H](O[C@@H]4O[C@H](CO)[C@@H](O)[C@H](O)[C@H]4O)[C@@H]3[C@@]3(CO)O[C@@H]23)ccc1O` [Picroside-II], the activity at 1 h, 1 μM is greater than 90%.
`CN1CCc2cc3c(cc2C(=O)Cc2ccc4c(c2C1)OCO4)OCO3` [Protopine]: the activity at 1 h, 1 μM was greater than 90%.
On to `O=c1c(-c2ccc(O)cc2)coc2c([C@@H]3O[C@H](CO)[C@@H](O)[C@H](O)[C@H]3O)c(O)ccc12` [Puerarin], for which the activity at 1 h, 1 μM is greater than 90%.
Still for that read-out and setting: next, `C[C@@H]1O[C@@H](Oc2cc(O)c3c(=O)c(O)c(-c4ccc(O)cc4)oc3c2O)[C@H](O)[C@H](O)[C@H]1O` [Rhodionin]: greater than 90%; `O=c1c2ccccc2nc2n1CCc1c-2[nH]c2ccccc12` [Rutaecarpine]: greater than 90%; `C[C@@H]1O[C@@H](OC[C@H]2O[C@@H](Oc3c(-c4ccc(O)c(O)c4)oc4cc(O)cc(O)c4c3=O)[C@H](O)[C@@H](O)[C@@H]2O)[C@H](O)[C@H](O)[C@H]1O` [Rutin]: greater than 90%.
Regarding `C[C@H]1O[C@@H](O[C@H]2CC[C@@]3(C)[C@@H](CC[C@]4(C)[C@@H]3C=C[C@]35OC[C@@]6(CCC(C)(C)C[C@H]63)[C@@H](O)C[C@]54C)[C@]2(C)CO)[C@H](O)[C@@H](O[C@@H]2O[C@H](CO)[C@@H](O)[C@H](O)[C@H]2O)[C@H]1O` [Saikosaponin A], the activity at 1 h, 1 μM was greater than 90%.
On the same count and under the same terms, next, `OC[C@H]1O[C@@H](OCCc2ccc(O)cc2)[C@H](O)[C@@H](O)[C@@H]1O` [Salidroside]: greater than 90%; `COc1cc(C2Oc3cc([C@H]4Oc5cc(O)cc(O)c5C(=O)[C@@H]4O)ccc3OC2CO)ccc1O` (stereo partly shown) [Silibinin]: greater than 90%; `CNCC(O)c1ccc(O)cc1` (stereo not shown) [Synephrine]: greater than 90%.
On the same count and under the same terms, the same measure for `COc1cc(/C=C/CO)cc(OC)c1O[C@@H]1O[C@H](CO)[C@@H](O)[C@H](O)[C@H]1O` [Syringin]: greater than 90%.
Consider `COc1ccc2cc1Oc1ccc(cc1)C[C@H]1c3cc(c(OC)cc3CCN1C)Oc1c(OC)c(OC)cc3c1[C@H](C2)N(C)CC3` [Tetrandrine], for which the activity at 1 h, 1 μM was greater than 90%.
Same read-out and setting: next, `COc1cc(C(=O)O)ccc1O` [Vanillic acid]: greater than 90%.

Staying with this data set, now noted: human, recombinant human CYP1A2, pH 7.4, probe phenacetin (25 μM), O-deethylation to acetaminophen; 1 μM active ingredient, Rh CYP1A2-mediated phenacetin O-deethylation, test dataset of 202 herb ingredients; read-out: % of Control Indication Activity (Mean).
On to `C[C@@]12C[C@@]3(O)O[C@@H](O1)[C@]1(COC(=O)c4ccccc4)[C@H]3C[C@@]12O[C@@H]1O[C@H](CO)[C@@H](O)[C@H](O)[C@H]1O` [Paeoniflorin], for which the activity at 1 h, 1 μM is greater than 90%.
Still for that read-out and setting: next, `COc1ccc(-c2cc(=O)c3c(O)c(OC)c(O[C@@H]4O[C@H](CO[C@@H]5O[C@@H](C)[C@H](O)[C@@H](O)[C@H]5O)[C@@H](O)[C@H](O)[C@H]4O)cc3o2)cc1` [Pectolinarin]: greater than 90%.
Turning to `COc1cc(O)c2c(c1)C(=O)c1cc(C)cc(O)c1C2=O` [Physcion], the activity at 1 h, 1 μM was greater than 90%.
`OC[C@H]1O[C@@H](Oc2cc(O)cc(/C=C/c3ccc(O)cc3)c2)[C@H](O)[C@@H](O)[C@@H]1O` [Polydatin]: the activity at 1 h, 1 μM was greater than 90%.
On the same count and under the same terms, next, `O=C(O)c1ccc(O)c(O)c1` [Protocatechuic acid]: greater than 90%; `COC(=O)C1=CC[C@@]23CC[C@@H]([C@@](C)(/C=C/C=C(\C)C(=O)O)OC2=O)[C@@]3(OC(C)=O)CC1` [Pseudolaric acid B]: greater than 90%.
On the same count and under the same terms, the same measure for `CC(C)=C1CC[C@@H](C)CC1=O` [Pulegone]: greater than 90%.
On the same count and under the same terms, the same measure for `O=c1c(O)c(-c2ccc(O)c(O)c2)oc2cc(O)cc(O)c12` [Quercetin]: greater than 90%; for `O=C(O)c1cc(O)c2c(c1)C(=O)c1cccc(O)c1C2=O` [Rhein]: greater than 90%; for `COc1cc2c(c(OC)c1OC)-c1c(cc(OC)c(OC)c1OC)C[C@](C)(O)[C@@H](C)C2` [Schizandrin]: greater than 90%.
Consider `COc1cc2ccc(=O)oc2cc1O` [Scopoletin], for which the activity at 1 h, 1 μM was greater than 90%.
The same measure, in the same setting: next, `O=C(O)[C@H]1O[C@@H](Oc2cc3oc(-c4ccc(O)cc4)cc(=O)c3c(O)c2O)[C@H](O)[C@@H](O)[C@@H]1O` [Scutellarin]: greater than 90%; `O=c1c(-c2ccc(O[C@@H]3O[C@H](CO)[C@@H](O)[C@H](O)[C@H]3O)cc2)coc2cc(O)cc(O)c12` [Sophoricoside]: greater than 90%; `Cc1coc2c1C(=O)C(=O)c1c-2ccc2c1CCCC2(C)C` [Tanshinone IIA]: 28.3%.
Turning to `COc1c(O[C@@H]2O[C@H](CO)[C@@H](O)[C@H](O)[C@H]2O)cc2occ(-c3ccc(O)cc3)c(=O)c2c1O` [Tectoridin], the activity at 1 h, 1 μM was greater than 90%.
Same read-out and setting: next, `COc1cc2c(cc1OC)[C@@H]1Cc3ccc(OC)c(OC)c3CN1CC2` [Tetrahydropalmatine]: greater than 90%; `Cc1ccc(C(C)C)c(O)c1` [Thymol]: greater than 90%.
For `O=c1cc(-c2ccc(O)cc2)oc2c([C@@H]3O[C@H](CO)[C@@H](O)[C@H](O)[C@H]3O)c(O)cc(O)c12` [Vitexin], the activity at 1 h, 1 μM is greater than 90%.
`COc1c(O)cc(O)c2c(=O)cc(-c3ccccc3)oc12` [Wogonin]: the activity at 1 h, 1 μM was determined as 74.6%.

The same data set, now with this note: human, recombinant human CYP1A2, pH 7.4, probe phenacetin (25 μM), O-deethylation to acetaminophen; 1 μM test compound, 25 μM phenacetin, average of duplicate determinations; read-out: % of Control Indication Activity.
Regarding `COc1cc(O)c2c(=O)c(O[C@@H]3O[C@H](CO)[C@H](O)[C@H](O)[C@H]3O)c(-c3ccc(O)c(O)c3)oc2c1` [zhang 83, rhamnetin 3-O-β-D-galactopyranoside], the activity at 1 h, 1 μM was greater than 90%.
The same measure, in the same setting: next, `COc1cc(O)c2c(=O)c(O[C@@H]3O[C@H](CO)[C@@H](O)[C@H](O)[C@H]3O)c(-c3ccc(O)c(O)c3)oc2c1` [zhang 84, rhamnetin 3-O-β-D-glucopyranoside]: greater than 90%; `CC(C)=CCC/C(C)=C/Cc1c(O)cc(O)c2c(=O)c3c(O)c4c(cc3oc12)OCO4` [zhang 89, 1,6,8-trihydroxy-2,3-methylenedioxy-5-geranylxanthone]: greater than 90%.

Staying with this data set, now noted: recombinant enzyme.
As to `COc1cc2c(cc1OC)-c1cc3ccc(OC)c(OC)c3c[n+]1CC2.[Cl-]` [Palmatine Hydrochloride], the “% of Control Indication Activity (Mean)” value was greater than 90.
Still for that read-out and setting: next, `COc1cc(/C=C/C(=O)OCC[N+](C)(C)C)cc(OC)c1O` [Sinapine]: greater than 90.

The data set is the same for the next values; noted with them: recombinant enzyme, pH 7.4.
For the compound `CN1[C@@H]2C[C@@H](OC(=O)[C@H](CO)c3ccccc3)C[C@H]1[C@@H]1O[C@@H]12` [Scopolamine Hydrobromide], the activity was greater than 90%.
The same measure, in the same setting: the same measure for `COC1=C[C@@H]2[C@@H]3Cc4ccc(OC)c(O)c4[C@]2(CCN3C)CC1=O` [Sinomenine]: greater than 90%.

Staying with this data set, now noted: recombinant enzyme, pH 7.4; 1 μM active ingredient, Rh CYP1A2-mediated phenacetin O-deethylation, test dataset of 202 herb ingredients; read-out: % of Control Indication Activity (Mean).
Regarding `O=C(/C=C/C=C/c1ccc2c(c1)OCO2)N1CCCCC1` [Piperine], the activity at 1 h, 1 μM is greater than 90%.
As to `O=c1ccc2cc3ccoc3cc2o1` [Psoralen], the activity at 1 h, 1 μM was determined as 10.8%.
As for `C[C@@H]1O[C@@H](Oc2c(-c3ccc(O)c(O)c3)oc3cc(O)cc(O)c3c2=O)[C@H](O)[C@H](O)[C@H]1O` [Quercitrin], the activity is greater than 90%.
With `C[C@]12CC[C@H](O)C[C@H]1CC[C@@H]1[C@@H]2CC[C@]2(C)[C@@H](c3ccc(=O)oc3)C[C@H]3O[C@]132` [Resibufogenin], the activity at 1 h, 1 μM is greater than 90%.
In the case of `C[C@H]1CC[C@@]2(OC1)O[C@H]1C[C@H]3[C@@H]4CC[C@@H]5C[C@@H](O)CC[C@]5(C)[C@H]4CC[C@]3(C)[C@H]1[C@@H]2C` [Sarsasapogenin], the activity was greater than 90%.
For `c1cc2c(cc1[C@H]1OC[C@H]3[C@@H]1CO[C@@H]3c1ccc3c(c1)OCO3)OCO2` [Sesamin], the activity is greater than 90%.
As for `O=C1C[C@@H]2OCC=C3CN4CC[C@]56c7ccccc7N1[C@H]5[C@H]2[C@H]3C[C@H]46` [Strychnine], the activity at 1 h, 1 μM was greater than 90%.

The values above are taken from paper PMC3116189, “Novel Natural Inhibitors of CYP1A2 Identified by in Silico and in Vitro Screening” (International Journal of Molecular Sciences, 2011).
